These results are taken from paper PMC7738856, “Inter and intra-tumor somatostatin receptor 2 heterogeneity influences peptide receptor radionuclide therapy response” (Theranostics, 2021).

SMILES strings stand for the structures.

For data set [1], the system named is NCI-H69 tumors. Put plainly: TUNEL assay on tumor sections. Type of data set: in vivo, BALB-c/nude mice. To be noted: 30 MBq, n = 4; for TUNEL positive areas (average): 25 fields of view per tumor. The method, then:
BALB-c/nude mice were engrafted subcutaneously with 5 x 10^6 NCI-H69 cells in 200 µl Hanks Balanced Salt Solution (HBSS) (Gibco, 14065056) containing 33,3% Matrigel (Corning, 354248). […] Organs were put in a gamma-counter for measurement of radioactive uptake and then fixed in formalin for 1 day at RT and stored in 70% ethanol until they were embedded in paraffin. Uninjected animals were used as control (n = 4). Tissue sections of 4 µm were deparaffinized and rehydrated. TUNEL assay was performed using the In Situ Cell Death Detection Kit, Fluorescein (Roche, 11684795910) according to manufacturer's instructions. 53BP1 and γH2AX focus formation was imaged with a Leica SP5 confocal microscope (Leica) using Z-stack acquisition. For tile-scan analyses a LSM700 confocal microscope (Zeiss) was used. Tiles were stitched, thresholded and quantified using ImageJ.

In another data set the test system is CA20948 tumors. Nature of the data set: Tumor growth and survival, CA20948 xenografts. Type of data set: in vivo, BALB-c/nude mice. Conditions: treated CA20948 bearing mice, 30 MBq, n = 9. The procedure:
(§1) Animal experiments were approved by the Animal Welfare Committee of the Erasmus MC and were conducted in accordance with European guidelines. Animal experiments included a time series for analyses of radiobiological parameters in NCI-H69 xenografts and survival cohorts with NCI-H69 or CA20948 xenografts.
(§2) BALB-c/nude mice were engrafted subcutaneously with 5 x 10^6 NCI-H69 cells in 200 µl HBSS containing 33,3% Matrigel or with 5 x 10^6 CA20948 cells in 200 µl HBSS. Mice with NCI-H69 tumors (n = 8) were injected when tumor volumes reached 697 ± 256 mm^3 and mice with CA20948 tumors (n = 9) when tumor reached 318 ± 216 mm^3. Both groups were compared to vehicle injected counterparts (n = 8 and n = 6, respectively). Tumor volumes were measured three times per week p.i. Mice were sacrificed when tumor volumes reached the humane endpoint of 2000 mm^3. Tumors were fixed in formalin for 1 day at RT and stored in 70% ethanol until they were embedded in paraffin.

The test system of another data set is NCI-H69 cells. Put plainly: 53BP1 and γH2AX foci in cells after in vitro treatment. Type of data set: cell-based. The method, then: NCI-H69 cells (ATCC) were cultured in Rosewell Park Medium Institute […] medium (RPMI-1638) (Sigma-Aldrich) supplemented with penicillin (50 units/mL), streptomycin (50 µg/mL) (Pen/Strep) and 10% fetal calf serum (FCS). CA20948 [14] cells were cultured in Dulbecco's Modified Eagle's Medium (DMEM) (Gibco) supplemented with Pen/Strep and 10% FCS. Cells were cultured at 37 °C and 5% CO2. […] NCI-H69 cells were spun down on a glass slide using a cytospin centrifuge (Rotofix 32A, Hettich) for 6 minutes at 347 g at room temperature (RT). CA20948 cells were washed and fixed on coverslips. Fixation was done using 2% paraformaldehyde (PFA) for 20 minutes at RT and samples were stained according to protocol (see below). Cells were IF stained as previously described. Briefly, tissue sections were deparaffinized as described above. Then antigen retrieval was performed by boiling slides for 20 minutes in pH 6 (for cytoplasmic antigens) or pH 9 (for nuclear antigens) antigen retrieval buffer (DAKO) and cooling down to RT. […] Tiles were stitched, thresholded and quantified using ImageJ. ImageJ was utilized to apply the same local threshold (default for DAPI, MaxEntropy for SST2) to all images in order to segment nuclei or quantify DAPI signal and quantify IF signal. Foci were quantified using the Find Maxima function.

The test system of the next data set is NCl-H69 tumors. Nature of the data set: Ki-67 immunohistochemistry of tumor sections. Type of data set: in vivo, BALB-c/nude mice. The method, then: BALB-c/nude mice were engrafted subcutaneously with 5 x 10^6 NCI-H69 cells in 200 μl Hanks Balanced Salt Solution (HBSS) (Gibco, 14065056) containing 33,3% Matrigel (Corning, 354248). […] Organs were put in a gamma-counter for measurement of radioactive uptake and then fixed in formalin for 1 day at RT and stored in 70% ethanol until they were embedded in paraffin. Uninjected animals were used as control (n = 4). […] Secondary antibodies used are donkey-anti-rabbit IgG Alexa Fluor 594 (Thermo Fisher, A-11078; 1:500) and donkey-anti-mouse IgG Alexa Fluor 488 (Thermo Fisher; A-11005; 1:500). For immunohistochemical stainings (IHC) Ki-67 (Abcam, ab15580; 1:200) was used. Here, the secondary antibody used is Peroxidase donkey-anti-rabbit IgG (Jackson Immunoresearch, 711-035-152; 1:2000). Tissue sections of 4 μm were deparaffinized and rehydrated. Samples were then incubated in 3% H2O2 (Honeywell, 95299) in methanol (Honeywell, 32213-2.5l) for 20 minutes at RT. Slides were washed with tap water and boiled in pH 6 Antigen Retrieval buffer for 20 minutes. Slides were incubated in blocking solution (PBS 5%BSA), following with the primary antibody in blocking solution overnight at 4 °C and with the secondary antibody in blocking solution for 90 minutes at RT. […] Quantification was performed in ImageJ by using particle analysis after.

Another data set has as its system NCl-H69 xenografted mice. The arrangement: species or system BALB-c/nude mice. Conditions: mouse, in vivo, iv. The method, then: BALB-c/nude mice were engrafted subcutaneously with 5 x 10^6 NCI-H69 cells in 200 µl Hanks Balanced Salt Solution (HBSS) (Gibco, 14065056) containing 33,3% Matrigel (Corning, 354248). […] Mice were sacrificed by cervical dislocation and analyzed at 1 h, 1, 2, 3, 4, 5, 7, 9, 11 and 14 days post injection (p.i.). Organs were put in a gamma-counter for measurement of radioactive uptake and then fixed in formalin for 1 day at RT and stored in 70% ethanol until they were embedded in paraffin. Uninjected animals were used as control (n = 4).
The biodistribution data were analyzed to determine the kinetics of the activity in organs and tumors. The measured activity data as a function of time were fitted with single or double exponential curves using the least-square regression method with Graphpad Prism version 5 (graphpad.com). Decisions on to use a single or a double exponential curve was based on the (corrected) Akaike's information criterion. The time-activity curves were integrated over time to determine the time-integrated activity coefficients after folding in the lutetium-177 decay function. Absorbed doses in all organs and in the tumor were calculated by using the MIRD equation with the lutetium-177 S-values for a 22 g mouse Moby phantom, kindly provided by Dr Erik Larsson.

In data set [2] the test system is NCI-H69 tumors. Nature of the data set: 53BP1 and γH2AX foci (immunofluorescence) in tumor sections. Type of data set: in vivo, BALB-c/nude mice. To be noted: 2 days p.i. The procedure: BALB-c/nude mice were engrafted subcutaneously with 5 x 10^6 NCI-H69 cells in 200 µl Hanks Balanced Salt Solution (HBSS) (Gibco, 14065056) containing 33,3% Matrigel (Corning, 354248). […] Organs were put in a gamma-counter for measurement of radioactive uptake and then fixed in formalin for 1 day at RT and stored in 70% ethanol until they were embedded in paraffin. Uninjected animals were used as control (n = 4). […] Secondary antibodies used are donkey-anti-rabbit IgG Alexa Fluor 594 (Thermo Fisher, A-11078; 1:500) and donkey-anti-mouse IgG Alexa Fluor 488 (Thermo Fisher; A-11005; 1:500). For immunohistochemical stainings (IHC) Ki-67 (Abcam, ab15580; 1:200) was used. Here, the secondary antibody used is Peroxidase donkey-anti-rabbit IgG (Jackson Immunoresearch, 711-035-152; 1:2000). Cells were IF stained as previously described. Briefly, tissue sections were deparaffinized as described above. Then antigen retrieval was performed by boiling slides for 20 minutes in pH 6 (for cytoplasmic antigens) or pH 9 (for nuclear antigens) antigen retrieval buffer (DAKO) and cooling down to RT. Tissues were permeabilized with PBS+0.5% Triton (PBS(T)) at RT and blocked with 3% BSA in PBS(T) at RT. Sections were incubated with primary antibodies overnight at 4 °C in block buffer and with secondary antibodies for 60 minutes at RT. Mounting was done using Vectashield containing DAPI (Vector labs, H-1200). 53BP1 and γH2AX focus formation was imaged with a Leica SP5 confocal microscope (Leica) using Z-stack acquisition. For tile-scan analyses a LSM700 confocal microscope (Zeiss) was used. Tiles were stitched, thresholded and quantified using ImageJ. ImageJ was utilized to apply the same local threshold (default for DAPI, MaxEntropy for SST2) to all images in order to segment nuclei or quantify DAPI signal and quantify IF signal. Foci were quantified using the Find Maxima function.

Data set [3] has as its system CA20948 and NCI-H69 cells. Put plainly: In vitro uptake of radioactivity (γ-counts) in cells. Type of data set: cell-based. Conditions: 1 MBq/mL, 4 h incubation, n = 3 experiments. The procedure: NCI-H69 cells (ATCC) were cultured in Rosewell Park Medium Institute […] medium (RPMI-1638) (Sigma-Aldrich) supplemented with penicillin (50 units/mL), streptomycin (50 µg/mL) (Pen/Strep) and 10% fetal calf serum (FCS). CA20948 [14] cells were cultured in Dulbecco's Modified Eagle's Medium (DMEM) (Gibco) supplemented with Pen/Strep and 10% FCS. Cells were cultured at 37 °C and 5% CO2.
NCI-H69 cells were spun down on a glass slide using a cytospin centrifuge (Rotofix 32A, Hettich) for 6 minutes at 347 g at room temperature (RT). CA20948 cells were washed and fixed on coverslips. Fixation was done using 2% paraformaldehyde (PFA) for 20 minutes at RT and samples were stained according to protocol (see below).
S4. [177Lu]Lu-DO T A -TATE uptake in SST2hi g h and SST2low NCI-H69 cells. (A) lutetium- 177 uptake measured by γ-counts in NCI-H69 and CA20948 cells after 4 hours of incubation (experiment n = 3).
**p < 0.01 (B) Representative IF images of SST2 after [ 177Lu]Lu-DOT A- TATE treatment. Arrows indicate internalization and accumulation of SST 2.
S5. Additional foci quantifications in SST2hi g h and SST2low cells. γH2AX foci quantification in SST2high and SST 2lo w NC I -H69 cells 2 days after [177Lu]Lu-DOT A -TATE treatment. Error bars indicate […]

The subject of data set [4] is NCI-H69 tumors. Put plainly: Tumor growth and survival, NCI-H69 xenografts. Type of data set: in vivo, BALB-c/nude mice. Conditions: n = 8. The procedure:
as §1, §2

Take `C[C@@H](O)[C@H](NC(=O)[C@@H]1CSSC[C@H](NC(=O)[C@@H](Cc2ccccc2)NC(=O)CN2CCN(CC(=O)O)CCN(CC(=O)O)CCN(CC(=O)O)CC2)C(=O)N[C@@H](Cc2ccc(O)cc2)C(=O)N[C@H](Cc2c[nH]c3ccccc23)C(=O)N[C@@H](CCCCN)C(=O)N[C@@H]([C@@H](C)O)C(=O)N1)C(=O)O` [[^177Lu]Lu-DOTA-TATE, [^177Lu]Lu-DOTA-[Tyr^3]octreotate, metal not drawn]: the “TUNEL positive areas (average)” value in the data set on NCI-H69 tumors [1] (4 days p.i.) is on record as 50%. The “TUNEL positive areas (average)” value in the data set on NCI-H69 tumors [1] (5 days p.i.) is 47%. In addition, in the data set on NCI-H69 tumors [1] (14 days after treatment), the “fraction of TUNEL positive cells (average)” value came to 26%. In the data set on CA20948 tumors, this compound had a median survival of 54 days. In addition, the “level of 53BP1 and γH2AX foci per cell versus non-treated cells” value with NCI-H69 cells (1 day post treatment, 1 MBq/mL for 4 h at 37 °C) is “significant increase”. For the same compound, the “γH2AX foci in SST2 high versus SST2 low NCI-H69 cells in vitro” value with NCI-H69 cells (2 days after incubation, 1 MBq/mL for 4 h) is “significant higher number”. In addition, the Ki-67 positive cells with NCl-H69 tumors (2 days after treatment, significantly increased) was 74.13%. Moreover, the “Ki-67 positive (cycling) cells in non-apoptotic regions” value in the data set on NCl-H69 tumors (all samples regardless of therapy, except 2 days after treatment) stood at 60.96 ± 5.32%. Besides, in the data set on NCl-H69 xenografted mice, the “absorbed dose, kidney” value is 3.5 ± 0.12 Gy; the “absorbed dose, other organs” value was 0.22-1.48 Gy; the “absorbed dose, tumor” value was found to be 10.08 ± 0.35 Gy. In the data set with NCI-H69 tumors [2] (n = 4), the “γH2AX foci in SST2 high cells, treated versus non-treated SST2 high regions” value is recorded as “significant increase”; the “γH2AX foci in SST2 high versus SST2 low cells in tumors from treated mice” value is given as “significantly higher number”; the “γH2AX foci in SST2 low cells, treated versus non-treated mice” value is recorded as “no significant increase”. Besides, the “increase in the number of γH2AX foci” value in the data set on NCI-H69 tumors [2] (versus NT controls) was 5 fold. In addition, the “uptake of radioactivity in CA20948 compared to NCI-H69 cells” value in data set [3] is 3 fold. In addition, the “tumor volume as % of the starting volume” value in the data set with NCI-H69 tumors [4] (14 days p.i., then regrowth, 30 MBq single injection) amounted to 71%. The same compound registered a median survival in the data set with NCI-H69 tumors [4] (treated NCI-H69 bearing mice, 30 MBq) of 34 days.
